# Laboratory results from patent US20250066341A1 (CHIESI FARMACEUTICI S.P.A., priority 2021, published 2025).
# pIC50: −log10 of the molar value.
# Biological target: T1, human recombinant LPA1 expressed in CHO cells (Homo sapiens, UniProt Q92633)
# T1 construct: expressed in transfected cells; host or cells: CHO cells (CHO-hLPA1 cell line)
# Experiment: FLIPR calcium mobilization assay, LPA1 antagonism in CHO-hLPA1 cells
# Format: cell-based
# Settings: inhibition of LPA EC80 Ca2+ response, 30 min pre-incubation, expressed as range of activity
# Experimental: The effectiveness of compounds of the present invention as LPA1 antagonist can be determined at the human recombinant LPA1 expressed in CHO cells, using a FLIPR assay in 384 well format.
# CHO-hLPA1 cell lines are cultured in a humidified incubator at 5% C02 in DMEM/F-12 (1:1) MIXTURE with 2 mM Glutamax, supplemented with 10% of Foetal Bovine Serum, 1 mM Sodium Pyruvate, 11 mM Hepes and 1× Penicillin/Streptomycin. […] Serial dilutions (1:3 or 1:4, 11 points CRC) of compounds are performed in 100% DMSO at 200× the final concentration. […] The final concentration of DMSO in the assay will be 0.5% in each well. Medium is removed by aspiration and cells are then incubated with 30 μl of a loading solution containing 5 μM of the cytoplasmic Ca2+ indicator Cal-520 AM in Assay Buffer containing 2.5 mM probenecid for 30 min at 37° C. incubator (cell loading). The loaded cell plates are transferred into the FLIPR instrument and calcium responses are monitored during the on-line addition protocols. For testing of compounds, after the cell loading, 10 μl/well of 4× antagonists' solution was added onto the cells. After 30 min pre-incubation (at 37° C.), 10 μl/well of 5× concentrated LPA EC80 was added and Ca2+ mobilization responses was followed during the on-line addition protocol. Intracellular peak fluorescence values subtracted by baseline fluorescence are exported and analysed to determine IC50 values, respectively. The calcium response is expressed as percentage of the maximal inhibition of the EC80 agonist response.
# The raw data (peak height expressed as relative fluorescence units) are normalized and transformed into “percent of inhibition”. Curve fitting and pIC50 (−LogIC50) estimations are carried out using a four-parameter logistic model using XLfit Software.
# T1 sequence (Q92633 whole entry): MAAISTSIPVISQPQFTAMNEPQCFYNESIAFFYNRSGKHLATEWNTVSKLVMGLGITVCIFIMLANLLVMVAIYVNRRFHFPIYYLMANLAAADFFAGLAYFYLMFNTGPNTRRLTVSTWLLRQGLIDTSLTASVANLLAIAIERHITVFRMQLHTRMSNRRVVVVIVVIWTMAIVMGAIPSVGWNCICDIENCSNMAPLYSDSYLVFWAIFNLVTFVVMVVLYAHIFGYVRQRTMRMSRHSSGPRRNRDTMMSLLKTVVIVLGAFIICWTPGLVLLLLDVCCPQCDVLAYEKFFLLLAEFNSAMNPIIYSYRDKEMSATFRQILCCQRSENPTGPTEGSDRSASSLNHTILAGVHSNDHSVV
row,SMILES,pIC50
1,"COc1cncc(Nc2c(C)noc2-c2ccc(OC[C@H]3CCCC[C@@H]3C(=O)O)c(C)n2)n1 [Compound 53, (1S,2S)-2-(((6-(4-((6-methoxypyrazin-2-yl)amino)-3-methylisoxazol-5-yl)-2-methylpyridin-3-yl)oxy)methyl)cyclohexane-1-carboxylic acid]",6.60 to 7.30
2,"CCCc1cncc(Nc2c(C)noc2-c2ccc(OC[C@H]3CCCC[C@@H]3C(=O)O)c(C)n2)n1 [Compound 54, (1S,2S)-2-(((2-methyl-6-(3-methyl-4-((6-propylpyrazin-2-yl)amino)isoxazol-5-yl)pyridin-3-yl)oxy)methyl)cyclohexane-1-carboxylic acid]",> 7.30
3,"Cc1nc(-c2onc(C)c2NS(=O)(=O)CCOc2ccc(F)cc2)ccc1OC[C@H]1CCCC[C@@H]1C(=O)O [Compound 55, (1S,2S)-2-(((6-(4-((2-(4-fluorophenoxy)ethyl)sulfonamido)-3-methylisoxazol-5-yl)-2-methylpyridin-3-yl)oxy)methyl)cyclohexane-1-carboxylic acid]",> 7.30
4,"Cc1nc(-c2onc(C)c2NS(=O)(=O)c2ccccc2)ccc1OC[C@H]1CCCC[C@@H]1C(=O)O [Compound 56, (1S,2S)-2-(((2-methyl-6-(3-methyl-4-(phenylsulfonamido)isoxazol-5-yl)pyridin-3-yl)oxy)methyl)cyclohexane-1-carboxylic acid]",6.22 to 6.60
5,"Cc1nc(-c2onc(C)c2NS(=O)(=O)CCc2ccccc2)ccc1OC[C@H]1CCCC[C@@H]1C(=O)O [Compound 57, (1S,2S)-2-(((2-methyl-6-(3-methyl-4-((2-phenylethyl)sulfonamido)isoxazol-5-yl)pyridin-3-yl)oxy)methyl)cyclohexane-1-carboxylic acid]",> 7.30
6,"Cc1nc(-c2cnn(C)c2NC(=O)O[C@H](C)c2ccccc2Cl)ccc1OC[C@H]1CCCC[C@@H]1C(=O)O [Compound 58, (1S,2S)-2-(((6-(5-((((R)-1-(2-chlorophenyl)ethoxy)carbonyl)amino)-1-methyl-1H-pyrazol-4-yl)-2-methylpyridin-3-yl)oxy)methyl)cyclohexane-1-carboxylic acid]",> 7.30
7,"Cc1noc(-c2ccc(OC[C@H]3CCCC[C@@H]3C(=O)O)cc2)c1NC(=O)O[C@H](C)c1cccnc1 [Compound 59, (1S,2S)-2-((4-(3-methyl-4-((((R)-1-(pyridin-3-yl)ethoxy)carbonyl)amino)isoxazol-5-yl)phenoxy)methyl)cyclohexane-1-carboxylic acid]",6.60 to 7.30
8,"Cc1nc(-c2cnn(C)c2CNc2nccc(-c3ccccc3)n2)ccc1OC[C@H]1CCCC[C@@H]1C(=O)O [Compound 61, (1S,2S)-2-(((2-methyl-6-(1-methyl-5-(((4-phenylpyrimidin-2-yl)amino)methyl)-1H-pyrazol-4-yl)pyridin-3-yl)oxy)methyl)cyclohexane-1-carboxylic acid]",> 7.30
9,"Cc1nc(-c2nnn(C)c2CNC(=O)OCc2ccccc2)ccc1OC[C@H]1CCCC[C@@H]1C(=O)O [Compound 62, (1S,2S)-2-(((6-(5-((((benzyloxy)carbonyl)amino)methyl)-1-methyl-1H-1,2,3-triazol-4-yl)-2-methylpyridin-3-yl)oxy)methyl)cyclohexane-1-carboxylic acid]",> 7.30
10,"Cc1nc(-c2nnn(C)c2CNC(=O)O[C@H](C)c2cccnc2Cl)ccc1OC[C@H]1CCCC[C@@H]1C(=O)O [Compound 63, (1S,2S)-2-(((6-(5-(((((R)-1-(2-chloropyridin-3-yl)ethoxy)carbonyl)amino)methyl)-1-methyl-1H-1,2,3-triazol-4-yl)-2-methylpyridin-3-yl)oxy)methyl)cyclohexane-1-carboxylic acid]",> 7.30
11,"Cc1nc(-c2nnn(C)c2CNC(=O)OCc2cccnc2Cl)ccc1OC[C@H]1CCCC[C@@H]1C(=O)O [Compound 64, (1S,2S)-2-(((6-(5-(((((2-chloropyridin-3-yl)methoxy)carbonyl)amino)methyl)-1-methyl-1H-1,2,3-triazol-4-yl)-2-methylpyridin-3-yl)oxy)methyl)cyclohexane-1-carboxylic acid]",6.60 to 7.30
12,"Cc1nc(-c2nnn(C)c2CNc2nccc(-c3cnccn3)n2)ccc1OC[C@H]1CCCC[C@@H]1C(=O)O [Compound 65, (1S,2S)-2-(((2-methyl-6-(1-methyl-5-(((4-(pyrazin-2-yl)pyrimidin-2-yl)amino)methyl)-1H-1,2,3-triazol-4-yl)pyridin-3-yl)oxy)methyl)cyclohexane-1-carboxylic acid]",> 7.30
13,"Cc1nc(-c2nnn(C)c2CNc2nccc(OC(C)C)n2)ccc1OC[C@H]1CCCC[C@@H]1C(=O)O [Compound 66, (1S,2S)-2-(((6-(5-(((4-isopropoxypyrimidin-2-yl)amino)methyl)-1-methyl-1H-1,2,3-triazol-4-yl)-2-methylpyridin-3-yl)oxy)methyl)cyclohexane-1-carboxylic acid]",> 7.30
14,"CCC[C@@H](C)OC(=O)Nc1c(-c2ccc(OC[C@H]3CCCC[C@@H]3C(=O)O)c(C)n2)nnn1C [Compound 68, (1S,2S)-2-(((2-methyl-6-(1-methyl-5-(((((R)-pentan-2-yl)oxy)carbonyl)amino)-1H-1,2,3-triazol-4-yl)pyridin-3-yl)oxy)methyl)cyclohexane-1-carboxylic acid]",> 7.30
15,Cc1nc(-c2nnn(C)c2NC(=O)O[C@H](C)c2ccccc2Cl)ccc1OC[C@H]1CCCC[C@@H]1C(=O)O [Compound 69],> 7.30
16,CCC[C@@H](C)OC(=O)Nc1c(C)noc1-c1ccc(OC[C@H]2CCCC[C@@H]2C(=O)O)c(C)n1 [Compound 70],> 7.30
17,"Cc1nc(-c2nnn(C)c2Nc2cncc(OC(C)C)n2)ccc1OC[C@H]1CCCC[C@@H]1C(=O)O [Compound 71, (1S,2S)-2-(((6-(5-((6-isopropoxypyrazin-2-yl)amino)-1-methyl-1H-1,2,3-triazol-4-yl)-2-methylpyridin-3-yl)oxy)methyl)cyclohexane-1-carboxylic acid]",> 7.30
18,"CCOc1cncc(Nc2c(-c3ccc(OC[C@H]4CCCC[C@@H]4C(=O)O)c(C)n3)nnn2C)n1 [Compound 72, (1S,2S)-2-(((6-(5-((6-ethoxypyrazin-2-yl)amino)-1-methyl-1H-1,2,3-triazol-4-y1)-2-methylpyridin-3-yl)oxy)methyl)cyclohexane-1-carboxylic acid]",6.60 to 7.30
19,Cc1nc(-c2nnn(C)c2CNc2cncc(OC(C)C)n2)ccc1OC[C@H]1CCCC[C@@H]1C(=O)O [Compound 73],6.60 to 7.30
20,"Cc1nc(-c2onc(C)c2COC(=O)N(C)C2CCCC2)ccc1OC[C@H]1CCCC[C@@H]1C(=O)O [Compound 74, (1S,2S)-2-(((6-(4-(((cyclopentyl(methyl)carbamoyl)oxy)methyl)-3-methylisoxazol-5-yl)-2-methylpyridin-3-yl)oxy)methyl)cyclohexane-1-carboxylic acid]",> 7.30
21,"CCCN(C)C(=O)OCc1c(C)noc1-c1ccc(OC[C@H]2CCCC[C@@H]2C(=O)O)c(C)n1 [Compound 75, (1S,2S)-2-(((2-methyl-6-(3-methyl-4-(((methyl(propyl)carbamoyl)oxy)methyl)isoxazol-5-y1)pyridin-3-yl)oxy)methyl)cyclohexane-1-carboxylic acid]",> 7.30
22,"CCCN(C)C(=O)OCc1c(-c2ccc(OC[C@H]3CCCC[C@@H]3C(=O)O)c(C)n2)nnn1C [Compound 76, (1S,2S)-2-(((2-methyl-6-(1-methyl-5-(((methyl(propyl)carbamoyl)oxy)methyl)-1H-1,2,3-triazol-4-yl)pyridin-3-yl)oxy)methyl)cyclohexane-1-carboxylic acid]",6.60 to 7.30
